Where two headings read alike, the source gives them in different places.
Legend:
[1] = target: T1, TALK-2 L264A mutant channels (Homo sapiens, UniProt Q96T54, L264A)
T1 sequence (Q96T54 1-332 L264A): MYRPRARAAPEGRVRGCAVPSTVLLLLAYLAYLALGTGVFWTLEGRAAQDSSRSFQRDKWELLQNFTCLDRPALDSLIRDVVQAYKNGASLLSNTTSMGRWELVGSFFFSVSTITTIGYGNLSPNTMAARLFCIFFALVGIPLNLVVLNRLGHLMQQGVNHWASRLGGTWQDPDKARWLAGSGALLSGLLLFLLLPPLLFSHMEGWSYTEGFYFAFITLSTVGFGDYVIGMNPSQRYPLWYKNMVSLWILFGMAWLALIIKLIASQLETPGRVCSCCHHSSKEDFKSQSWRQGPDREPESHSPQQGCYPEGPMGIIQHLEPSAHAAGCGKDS
Experimental: Oocytes were surgically removed from anesthetized adult females, treated with type II collagenase (Sigma-Aldrich/Merck, Germany) and manually defolliculated. 50 nl of a solution containing the K^+ channel specific cRNA was injected into Dumont stage V - VI oocytes and subsequently incubated at 17 °C in a solution containing (mM): 54 NaCl, 30 KCl, 2.4 NaHCO3, 0.82 MgSO4 x 7 H2O, 0.41 CaCl2, 0.33 Ca(NO3)2 x 4 H2O and 7.5 TRIS (pH 7.4 adjusted with NaOH/HCl) for 1–7 days before use. Electrophysiological recordings: Excised patch measurements in inside-out configuration under voltage-clamp conditions were performed at room temperature (22 – 24 °C). […] Currents were recorded with an EPC10 amplifier (HEKA electronics, Germany) and sampled at 10 kHz or higher and filtered with 3 kHz (-3 dB) or higher as appropriate for sampling rate.
Recorded currents were analyzed from stable membrane patches at a voltage defined in the respective figure legend or with a voltage protocol as indicated in the respective figure. The fold activation (fold change in (tail) current amplitude) of a ligand (drug or bioactive lipid) was calculated from Eq. 1:1 Fold activationFA=Iactivated/Ibasal where Iactivated represents the stable current level in the presence of a given concentration of a respective ligand and Ibasal the measured current before ligand application. […]

WT TREK-1 channels = WT TREK-1 channels (Rattus norvegicus, UniProt Q920B6); conditions: TREK-1 WT
WT TREK-1 channels, sequence (Q920B6 whole entry): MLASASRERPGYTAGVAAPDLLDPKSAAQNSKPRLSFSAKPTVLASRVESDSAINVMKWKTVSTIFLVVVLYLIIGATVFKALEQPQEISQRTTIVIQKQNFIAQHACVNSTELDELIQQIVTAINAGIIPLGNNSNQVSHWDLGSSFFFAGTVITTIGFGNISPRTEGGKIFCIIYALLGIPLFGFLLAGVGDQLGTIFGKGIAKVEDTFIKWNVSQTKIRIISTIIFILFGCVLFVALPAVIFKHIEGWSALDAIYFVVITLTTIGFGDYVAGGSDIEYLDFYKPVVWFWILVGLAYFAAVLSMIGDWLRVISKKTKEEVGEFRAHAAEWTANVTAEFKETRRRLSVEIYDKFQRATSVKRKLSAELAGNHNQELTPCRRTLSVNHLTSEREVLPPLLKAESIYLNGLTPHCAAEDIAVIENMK
Experimental: Data shown are the mean ± s.e.m and the number (n) of repeats of the representative measurements with similar results is indicated in the figure.
Oocytes were surgically removed from anesthetized adult females, treated with type II collagenase (Sigma-Aldrich/Merck, Germany) and manually defolliculated. 50 nl of a solution containing the K^+ channel specific cRNA was injected into Dumont stage V - VI oocytes and subsequently incubated at 17 °C in a solution containing (mM): 54 NaCl, 30 KCl, 2.4 NaHCO3, 0.82 MgSO4 x 7 H2O, 0.41 CaCl2, 0.33 Ca(NO3)2 x 4 H2O and 7.5 TRIS (pH 7.4 adjusted with NaOH/HCl) for 1–7 days before use. Electrophysiological recordings: Excised patch measurements in inside-out configuration under voltage-clamp conditions were performed at room temperature (22 – 24 °C). Patch pipettes were made from thick-walled borosilicate glass GB 200TF-8P (Science Products, Germany), had resistances of 0.2–0.5 MΩ (tip diameter of 10 - 25 µm) and filled with a pipette solution (in mM): 120 KCl, 10 HEPES and 3.6 CaCl2 (pH 7.0 - 8.5 adjusted with KOH/HCl) or 120 KCl, 10 AMPSO and 3.6 CaCl2 (pH 9.0 - 10.5 adjusted with KOH/HCl). Intracellular bath solutions and compounds were applied to the cytoplasmic side of excised patches for the various K^+ channels via a gravity flow multi-barrel pipette system. Intracellular solution had the following composition (in mM): 120 KCl, 10 HEPES, 2 EGTA and 1 Pyrophosphate (pH adjusted with KOH/HCl). In other intracellular bath solutions, K^+ was replaced by Rb^+ (pH 7.4 adjusted with RbOH/HCl). Currents were recorded with an EPC10 amplifier (HEKA electronics, Germany) and sampled at 10 kHz or higher and filtered with 3 kHz (-3 dB) or higher as appropriate for sampling rate.

[2] = target: T1, TALK-2 L264A mutant channels; test: Conductance-voltage (G-V) curves from tail currents, V1/2 (intracellular Rb+); assay type: cell-based; set-up: expressed in transfected cells; host or cells: Xenopus laevis oocytes (cRNA injection), excised inside-out patches; conditions: for Normalized current: TALK-2 L264A + 1 mM TPenA
Text: The voltage-dependent activation mechanism of the SF gate in K2P channels allows to estimate the electrical work (ΔG = zFΔV1/2) required for pore opening by fitting the G–V curve to a Boltzmann equation. […] The open state represents the situation of both gates being simultaneously open but voltage can only exert force on the SF gate that functions as voltage sensor. […] We further tested whether mutations that open the lower gate (L262A and L264A) would affect the extracellular pH sensitivity. […] We further explored this concept of allosteric coupling using the mutations identified in the functional alanine screen of TM2 and TM4.
Dashed lines in e, f represent the level of WT (unstimulated) V1/2 at pHe 7.4. g Normalized currents from TEVC measurements of oocytes expressing WT (n = 11) and mutant L262A (n = 5) or L264A TALK-2 channels (n = 8), respectively. Channels were activated by increasing pHe from 5.5 to 10.5 with 0.5 pH increments. Currents were elucidated with a voltage protocol ramped from −120 mV to +45 mV within 3.5 s, analyzed at +40 mV and normalized to pH 10.5. Data shown are the mean ± s.e.m and the number (n) of independent experiments is indicated in the figure and supplementary tables 3 and 4.
Conductance-voltage (G–V) relationships were determined from tail currents recorded at a holding potential (VH) of −80 mV after 300 ms depolarizing steps as indicated in the respective figure legend. Data were analyzed with a single Boltzmann fit following Eq. 6:6 GV=Imax/1+e^V−V1/2/slope+Ibase where V1/2 represents the voltage of half-maximal activation, s is the slope factor and Imax and Ibase represent the upper and lower asymptotes. Under appropriate experimental conditions, you can use slope to calculate the valence (charge) of the ion moving across the channel. Slope equals R * T/ z * F where R is the universal gas constant, T is temperature in K, F is the Faraday constant, and z is the valence.

Compound: NCCOB(c1ccccc1)c1ccccc1 [2-APB, 2-aminoethoxydiphenyl borate]
- Fold activation 1 mM 2-APB ([1]; 1 mM): 2.78 fold
- further current increase by 2-APB ([1]; 1.0 mM 2-APB): only a minor further current increase
- Rb+-induced current (WT TREK-1 channels; 0.001 mM 2-APB): 2.62 nA
- Rb+-induced current (WT TREK-1 channels; 0.01 mM 2-APB): 2.54 nA
- Rb+-induced current (WT TREK-1 channels; 0.1 mM 2-APB): 1.29 nA
- Rb+-induced current (WT TREK-1 channels; 0.5 mM 2-APB): -0.03 nA
- Rb+-induced current (WT TREK-1 channels; 1.0 mM 2-APB): -0.44 nA
- Rb+-induced current (WT TREK-1 channels; 2.0 mM 2-APB): 0.00 nA

Compound: CCCCC[N+](CCCCC)(CCCCC)CCCCC [TPenA, Tetra-pentyl-ammonium chloride]
- Normalized current ([2]; Voltage 0.000): 0.564
- Normalized current ([2]; Voltage 0.005): 0.623
- Normalized current ([2]; Voltage 0.010): 0.674
- Normalized current ([2]; Voltage 0.015): 0.740
- Normalized current ([2]; Voltage 0.020): 0.788
- Normalized current ([2]; Voltage 0.025): 0.840
- Normalized current ([2]; Voltage 0.030): 0.884
- Normalized current ([2]; Voltage 0.035): 0.911
- Normalized current ([2]; Voltage 0.040): 0.934
- Normalized current ([2]; Voltage 0.045): 0.947
- Normalized current ([2]; Voltage 0.050): 0.961
- Normalized current ([2]; Voltage 0.055): 0.969
- Normalized current ([2]; Voltage 0.060): 0.977
- Normalized current ([2]; Voltage 0.065): 0.978
- Normalized current ([2]; Voltage 0.070): 0.978
- Normalized current ([2]; Voltage 0.075): 0.974
- Normalized current ([2]; Voltage 0.080): 0.988
- Normalized current ([2]; Voltage 0.085): 0.976
- Normalized current ([2]; Voltage 0.090): 0.979
- Normalized current ([2]; Voltage 0.095): 0.980
- Normalized current ([2]; Voltage 0.100): 0.977
- Normalized current ([2]; Voltage 0.105): 0.982
- Normalized current ([2]; Voltage 0.110): 0.987
- Normalized current ([2]; Voltage 0.115): 0.981
- Normalized current ([2]; Voltage -0.005): 0.522
- Normalized current ([2]; Voltage -0.010): 0.490
- Normalized current ([2]; Voltage -0.015): 0.463
- Normalized current ([2]; Voltage -0.020): 0.444
- Normalized current ([2]; Voltage -0.025): 0.430
- Normalized current ([2]; Voltage -0.030): 0.417
- Normalized current ([2]; Voltage -0.035): 0.405
- Normalized current ([2]; Voltage -0.040): 0.395
- Normalized current ([2]; Voltage -0.045): 0.384
- Normalized current ([2]; Voltage -0.050): 0.375
- Normalized current ([2]; Voltage -0.055): 0.367
- Normalized current ([2]; Voltage -0.060): 0.359
- Normalized current ([2]; Voltage -0.065): 0.351
- Normalized current ([2]; Voltage -0.070): 0.345
- Normalized current ([2]; Voltage -0.075): 0.337
- Normalized current ([2]; Voltage -0.080): 0.333
- Normalized current ([2]; Voltage -0.085): 0.330
- Normalized current ([2]; Voltage -0.090): 0.331
- Normalized current ([2]; Voltage -0.095): 0.326
- effect of TPenA on the G-V curve ([2]; TALK-2 L264A, intracellular Rb+): no marked effect
